Experimental data taken from patent US6797699B1, “Neuroprotective agents” (University of Southampton, priority 1997, dated 2004).

Assays:
Adult male Wistar rats = assay: Global forebrain ischaemia in vivo; design: species or system Wistar rat; conditions: 1 mg/kg 15 minutes prior to 15 minutes global forebrain ischaemia; assessed 24 hours after; vs vehicle
Procedure: Animals were anaesthetised as described above, and a thermistor inserted into the left temporal muscle for recording of body temperature. A dorsal midline skin incision was made in the neck and using microsurgery, the vertebral arteries were identified and occluded using a monopolar electrode at the level of C 1. The incision was closed, animals allowed to recover from anaesthesia and returned to their cages for 24 hours. After this time, animals were re-anaesthetised and the common carotid arteries (CCAs) exposed. Animals were divided into two groups. Group 1 received 0.25-0.3 ml of a 1 mg/ml solution of L-ArgSp (final dose 1 mg/kg) while group 2 received 0.25-0.3 ml of sterile distilled water. Samples were prepared independently and randomised prior to injection. Animals were injected 15 minutes prior to occlusion of the CCAs with microvascular clips for 15 minutes. After this time, the skin was closed, and animals allowed to recover. After 24 hours animals were terminally anaesthetised and transcardially perfused with 1% paraformaldehyde and the brains removed and processed for histology. A blinded observer determined the number of live and dead neurones in the CA1, CA3 fields of the pyramidal cell layer, and the dentate gyrus granule cell layer from haematoxylin and eosin stained coronal sections.

[1] = tested on: NMDA receptor-mediated neurotoxicity in organotypic hippocampal slice cultures; assay: NMDA receptor-mediated neurotoxicity in organotypic hippocampal slice cultures; assay type: cell-based, Wistar rat; conditions: 300 μM throughout the experiment, PI at 24 hours
Procedure: Organotypic hippocampal slice cultures were prepared and maintained as described above. NMDA was prepared as a 50 mM stock solution in distilled water, and diluted as required in SF medium. Neurotoxicity was induced by placing cultures in SF medium containing either 10 μM or […] NMDA for 180 minutes. After this time, cultures were replated in SF-medium and maintained for 24 hours in the incubator. Either 300 μM L-ArgSp or vehicle (SF medium) was added to the culture medium pre-, during and post-NMDA exposure. Throughout the duration of the experiment, 5 μg/ml PI was included in the medium. After 24 hours, neuronal damage was determined by PI fluorescence imaging and quantified as described previously.

[2] = tested on: CA1 pyramidal cell layer of organotypic hippocampal slice cultures; assay: Hypoxic neuronal damage in organotypic hippocampal slice cultures (propidium iodide fluorescence); assay type: cell-based, Wistar rat; conditions: 300 μM for 24 hours
[3] = tested on: anaesthetised male Wistar rats; assay: Blood flow studies (mean arterial blood pressure after intravenous injection); assay type: in vivo, Wistar rat; conditions: for MABP (mmHg): pre-injection 79.9 ± 3.9, four observations
Procedure: Adult male Wistar rats (250-300 g) were initially anesthetized with 4% halothane and subsequently anaesthesia was maintained with 1.5% halothane mixed in […] in O2. The femoral artery was cannulated for continuous blood pressure recording. The femoral vein was also cannulated to allow injection of the compound. Animals were allowed 15-30 minutes to stabilise and were then injected with 0.25-0.3 ml of a 1 mg/ml solution of L-ArgSp. Following injection of the compound, rats were continuously monitored for 60 minutes. After this time, anaesthesia was terminated and rats allowed to waken. In these studies, measurement was taken of the mean arterial blood pressure (MABP) induced following an intravenous injection of 1 mg/kg L-ArgSp into the femoral vein of anaesthetised male Wistar rats. MABP was calculated immediately prior to injection of L-ArgSp (pre-injection) and 30 seconds and 10 minutes post-injection. Data are presented as mean […] of four observations.

N=C(N)NCCCC(N)C(=O)NCCCNCCCCN [Compound A, N′-L-Arginylspermidine]
neuronal loss in CA1, CA3 and dentate gyrus (in words) (Adult male Wistar rats): neuronal loss was significantly attenuated
damage produced by NMDA (PI fluorescence, in words) ([1]; 10 μM NMDA for 180 minutes): did not reduce the damage
damage produced by NMDA (PI fluorescence, in words) ([1]; 30 μM NMDA for 180 minutes): did not reduce the damage
PI fluorescence above baseline after incubation without hypoxia [2]: no increase in PI fluorescence above baseline was observed
effect on body temperature ([3]; 1 mg/kg intravenous): No effect
effect on heart rate ([3]; 1 mg/kg intravenous): No effect
ill effects on the animals following wakening ([3]; 1 mg/kg intravenous): no ill effects
reduction in MABP (significance, in words) ([3]; 1 mg/kg intravenous): not statistically significant
% Charge ([3]; 1 mg/kg intravenous, 30 secs post-injection vs pre-injection): −9.6%
MABP (mmHg) ([3]; 1 mg/kg intravenous, 30 secs post-injection): 72.2 ± 5.1 mmHg
% Charge ([3]; 1 mg/kg intravenous, 10 minutes post-injection vs pre-injection): −0.9%
MABP (mmHg) ([3]; 1 mg/kg intravenous, 10 minutes post-injection): 79.2 ± 6.5 mmHg
blood pressure recordings (in words) ([3]; 1 mg/kg intravenous, 60 minutes after injection): identical to those 10 minutes post-drug administration
long-term behavioural deficits ([3]; 1 mg/kg, five rats recovered for three days): no long-term behavioural deficits have been observed
effect on blood flow compared with FTX (in words) ([3]; rat, in vivo): less adverse effect on blood flow than FTX
